From patent US20180296532A1, “RNA-Focused Small Molecules for Inhibiting RNA Toxicity in Myotonic Dystrophy” (The Scripps Research Institute, priority 2015, published 2018)

Key:
[1] = tested on: r(CUG)12-MBNL1 complex; assay: TR-FRET assay, disruption of the r(CUG)12-MBNL1 complex; type: biochemical
From the text: DM1 is caused by an RNA gain-of-function mechanism in which r(CUG)^exp binds and inactivates proteins involved RNA biogenesis.^(25-29) One protein, muscleblind-like 1 (MBNL1), regulates the alternative splicing of a sub-set of RNAs that are de-regulated in DM1.^(27, 43-45) We discovered that Formula (I) compounds disrupt the r(CUG)12-MBNL1 complex in vitro as determined by a previously described time-resolved fluorescence resonance energy transfer (TR-FRET) assay (FIG. 1A).^(46)
The in vitro activity of library compounds was assessed by disruption of the r(CUG)12-MBNL1 complex using a previously reported TR-FRET assay.^(32, 46) Biotinylated RNA was folded at 60° C. in 1× Folding Buffer (20 mM HEPES, pH 7.5, […], and 10 mM NaCl) and slowly cooled to room temperature. The buffer was then adjusted to 1× Assay Buffer (1× Folding Buffer supplemented with 2 mM MgCl2, 2 mM CaCl2, 5 mM DTT, 0.1% BSA, 0.05% Tween-20) and MBNL1-His6 was added. The final concentrations of RNA and MBNL1-His6 were 80 nM and 62 nM, respectively. After incubation at room temperature for 15 min, 8 μL aliquots were then dispensed into each well of low volume, 384-well plates using a flying reagent dispenser. […] Plates were incubated at room temperature for 1 h, and then TR-FRET was measured using a Molecular Devices SpectraMax M5 plate reader using an excitation wavelength of 345 nm and a 420 nm cutoff. Fluorescence was measured at 545 and 665 nm. Library compounds were screened for potential intrinsic fluorescence under screening conditions. No library compounds were fluorescent at 665 nm and two non-hit compounds have low fluorescence at 545 nm.
To calculate the percent inhibition of complex formation, the ratio of fluorescence intensity at 545 nm and 665 nm in the presence of compound was compared to the ratio in the absence of small molecule (100% r(CUG)12-MBNL1 complex formation) and in the absence of RNA and protein (no complex formation). […]

[2] = tested on: DM1 patient derived fibroblasts containing 500 CUG repeats; assay: MBNL1 pre-mRNA splicing defects in DM1 patient derived fibroblasts; type: cell-based; settings: 300 and 200 μM, 48 h
Protocol: Bioactivity of 2GN8 was further assessed using DM1 patient derived fibroblasts containing 500 CUG repeats. First 2GN8 was evaluated for improvement of DM1 MBNL1 splicing defects. In DM1, mis-splicing of MBNL1 exon 5 results in an increase in inclusion to ˜30% compared to ˜15% inclusion in healthy tissue.
Bioactivity of 2GN8 was assessed by using DM1 patient derived fibroblasts containing 500 CTG repeats (GM03987) and healthy fibroblasts (GM07492). Cells were grown as monolayers in 6 well plates in growth medium (1×EMEM (Lonza), 10% FBS, 1× glutagro (Corning), 1×MEM non-essential amino acids (Corning) and 1× antibiotic/antimycotic (Corning)). Once cells were ˜80% confluent, they were treated with growth medium containing 2GN8 (300, 200 and 100 μM). After 48 h the cells were lysed and the total RNA was harvested using a Zymo Quick RNA miniprep kit. An on-column DNA digestion was completed per the manufacturer's recommended protocol. Approximately 100 ng of total RNA was reverse transcribed at 50° C. using 100 units of SuperScript III reverse transcriptase (Life Technologies). Then 20% of the RT reaction was subjected to PCR using GoTaq DNA polymerase. RT-PCR products were observed after 25 cycles of 95° C. for 30 s, 58° C. for 30 s, 72° C. for 1 min and a final extension at 72° C. for 1 min. The products were separated on an 2% agarose gel ran at 100 V for 1 h in 1×TAE buffer. […]

N=C(N)Nc1ccc2nc(-c3ccc(-c4nc5ccc(NC(=N)N)cc5[nH]4)cc3)[nH]c2c1 [Compound 2GN8]
IC50 [1]: 39 ± 4 µM | enhancement in potency of 2GN8 over precursor compound 27 ([1]; ratio of TR-FRET IC50 values): roughly 14 fold | improvement of MBNL1 pre-mRNA splicing defects (exon 5 inclusion) [2]: substantially improves
